Test results from patent publication US12534742B2, “Compound for regulating gene editing efficiency and application thereof” (Shanghai Institute of Organic Chemistry, Chinese Academy of …, priority 2018, dated 2026).

How the values were obtained:
[1] = molecular target: CRISPR/Cas9 from Streptococcus pyogenes (SpyCas9) (Streptococcus pyogenes serotype M1, UniProt Q99ZW2); experiment: cell-based;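 note: Cell-based reporter with a SpyCas9 target site placed in EGFP, where NHEJ repair of the cut restores the reading frame, read-out is the share of EGFP-positive cells, lowered by inhibitors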
Chain of CRISPR/Cas9 from Streptococcus pyogenes (SpyCas9) (Q99ZW2 whole entry): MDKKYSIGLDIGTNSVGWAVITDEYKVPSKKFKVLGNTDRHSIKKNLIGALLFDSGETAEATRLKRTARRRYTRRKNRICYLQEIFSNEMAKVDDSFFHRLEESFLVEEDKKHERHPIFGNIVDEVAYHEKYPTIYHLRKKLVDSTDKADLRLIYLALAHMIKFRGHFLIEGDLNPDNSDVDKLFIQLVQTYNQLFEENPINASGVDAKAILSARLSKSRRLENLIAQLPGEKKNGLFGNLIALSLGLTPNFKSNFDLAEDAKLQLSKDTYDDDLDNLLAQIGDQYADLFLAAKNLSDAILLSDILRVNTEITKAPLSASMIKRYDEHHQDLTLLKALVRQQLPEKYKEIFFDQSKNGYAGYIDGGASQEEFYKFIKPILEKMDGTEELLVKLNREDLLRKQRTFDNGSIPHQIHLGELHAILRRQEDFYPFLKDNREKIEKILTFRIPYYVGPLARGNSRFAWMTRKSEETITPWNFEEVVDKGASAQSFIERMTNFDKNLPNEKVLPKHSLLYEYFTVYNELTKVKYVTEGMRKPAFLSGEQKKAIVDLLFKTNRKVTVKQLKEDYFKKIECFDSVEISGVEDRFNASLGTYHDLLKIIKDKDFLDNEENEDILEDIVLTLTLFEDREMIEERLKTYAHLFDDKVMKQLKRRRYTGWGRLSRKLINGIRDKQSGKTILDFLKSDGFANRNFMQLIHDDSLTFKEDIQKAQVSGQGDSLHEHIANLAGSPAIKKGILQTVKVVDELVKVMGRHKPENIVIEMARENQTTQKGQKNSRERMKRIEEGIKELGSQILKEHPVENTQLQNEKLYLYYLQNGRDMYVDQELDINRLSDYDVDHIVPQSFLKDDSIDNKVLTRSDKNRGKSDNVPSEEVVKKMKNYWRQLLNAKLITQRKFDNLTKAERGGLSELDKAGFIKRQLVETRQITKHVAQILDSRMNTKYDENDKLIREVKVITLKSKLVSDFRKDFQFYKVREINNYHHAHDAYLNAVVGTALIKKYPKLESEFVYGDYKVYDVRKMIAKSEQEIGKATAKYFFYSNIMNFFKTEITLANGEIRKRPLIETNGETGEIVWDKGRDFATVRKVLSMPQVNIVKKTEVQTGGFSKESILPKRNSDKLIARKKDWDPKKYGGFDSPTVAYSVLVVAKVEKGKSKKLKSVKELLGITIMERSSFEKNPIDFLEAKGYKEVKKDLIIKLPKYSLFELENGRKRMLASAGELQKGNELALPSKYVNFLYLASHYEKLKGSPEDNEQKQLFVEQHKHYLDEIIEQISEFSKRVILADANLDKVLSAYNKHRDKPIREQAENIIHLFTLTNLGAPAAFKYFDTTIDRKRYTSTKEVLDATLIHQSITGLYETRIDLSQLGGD
Source text: The CRISPR/Cas9 recognition site was inserted into the EGFP coding sequence so that the downstream sequence of the CRISPR/Cas9 recognition site was inside the box. The EGFP sequence was cleaved by Cas9 to produce double-strand breaks (DSBs), which would repair one of the two DNA repair mechanisms in the cell: non-homologous end joining (NHEJ) or homologous directed repair (HDR). The insertion or deletion introduced by NHEJ would restore the open reading frame of EGFP, thus activating EGFP fluorescence (FIG. 1).

SpyCas9 = molecular target: T1, SpyCas9 (Streptococcus pyogenes serotype M1, UniProt Q99ZW2); experiment: Inhibition of plasmid-expressed SpyCas9 editing of endogenous genes in HEK293 cells, T7E1 test; type: cell-based; conditions: 10 μM compound
T1 construct: expressed in transfected cells; host or cells: HEK293
T1 sequence (Q99ZW2 whole entry): as above
Experimental: HEK293 cells (10^5 cells/well) were seeded on a 24-well plate. 24 hours after inoculation, cells were transfected with 200 ng AAVS1-AS2 and 200 ng pST-Cas9 plasmid or 200 ng EMX1 and 200 ng pST-Cas9 plasmid in Opti-MEM medium. 6 hours after transfection, DMEM supplemented with 10% FBS and 10 μM drug (Compound 49) was used to replace Opti-MEM. The positive control for Cas9 activity was 200 ng AAVS1-AS2 and 200 ng pST-Cas9 plasmid or 200 ng EMX1 and 200 ng pST-Cas9 plasmid without drug. After the gene editing was completed, the cell genomic DNA was extracted, and the gene editing efficiency was tested by the T7E1 method (see Guschin, D. Y. et al. Methods Mol. Biol. 649, 247-256 (2010))).
The method of this example was the same as in Example 2.

SMILES	IC50 [1] [µM]	other results
O=C(/C=C/c1ccc(O)cc1)c1ccccc1 [Compound 12]	10 to 100	
C=CS(=O)(=O)c1ccccc1 [Compound 32]	10 to 100	
CC1=CC(=O)c2c(O)cccc2C1=O [Compound 48]	1 to 10	gene modification rate (SpyCas9; HEK293 cells transfected with AAVS1-AS2 and pST-Cas9 plasmids, no-drug group 22.4% and 35.1%): 0%; gene modification rate (SpyCas9; HEK293 cells transfected with EMX1 and pST-Cas9 plasmids, no-drug group 26.5% and 27.9%): 0%
COc1cc(/C=C/C(=O)CC(=O)/C=C/c2ccc(O)c(OC)c2)ccc1O [Compound 75]	10 to 100	
O=C(/C=C/c1ccc(Br)cc1)c1ccccc1 [Compound 101]	10 to 100	
COc1ccc(C(=O)/C=C/c2ccccc2)cc1 [Compound 102]	10 to 100	
O=C(/C=C/c1cccc(Cl)c1)c1ccccc1 [Compound 104]	10 to 100	
O=C(/C=C/c1ccccc1)c1ccc(Cl)cc1 [Compound 105]	10 to 100	
O=C(/C=C/c1cc(F)c(F)c(F)c1)c1ccccc1 [Compound 110]	10 to 100	
COc1ccc(/C=C/C(=O)c2ccccc2)cc1 [Compound 111]	10 to 100	
C#CCCOc1cccc(/C=C/S(=O)(=O)F)c1 [Compound 119]	1 to 10	
O=C(/C=C/c1ccccc1Br)c1ccccc1 [Compound 127]	10 to 100	
O=C(O)/C=C/c1cccc(O)c1 [Compound 801]	> 100	
O=C(O)/C=C/c1ccc(O)cc1 [Compound 802]	> 100	
COc1cc(/C=C/C(=O)O)ccc1O [Compound 803]	> 100	
COC(=O)/C=C/c1ccc(O)cc1 [Compound 804]	> 100	
COc1cc(/C=C/c2ccc(O)cc2)cc(OC)c1 [Compound 811]	> 100	
O=C(/C=C/c1ccc(O)cc1)c1ccc(O)cc1O [Compound 813]	> 100	
Oc1cc(O)c2c(c1)O[C@H](c1ccc(O)c(O)c1)[C@@H](O)C2 [Compound 814]	> 100	
O=c1c(O)c(-c2ccc(O)cc2)oc2ccccc12 [Compound 815]	> 100	
O=C1CC(c2ccccc2O)Oc2ccccc21 (stereo not drawn) [Compound 816]	> 100	
O=C1CC(c2cccc(O)c2)Oc2ccccc21 (stereo not drawn) [Compound 817]	> 100	
C=C(C)C(N)=O [Compound 825]	> 100	

SMILES	IC50 [1] [µM]	other results
COC(=O)/C=C/C(=O)OC [Compound 826]	> 100	
C/C(C=O)=C\c1ccccc1 [Compound 827]	> 100	
C=CC(=O)OC [Compound 828]	> 100	
C=CC(=O)N(C)C [Compound 829]	> 100	
C=CS(C)(=O)=O [Compound 830]	> 100	
CN(C)C/C=C/C(=O)Nc1cc2c(Nc3ccc(F)c(Cl)c3)ncnc2cc1O[C@@H]1CCOC1 [Compound 833]	> 100	
CNC(=O)c1ccccc1Sc1ccc2c(/C=C/c3ccccn3)n[nH]c2c1 [Compound 834]	> 100	
N#C/C(=C1/SC[C@@H](c2ccc(Cl)cc2Cl)S1)n1ccnc1 [Compound 835]	> 100	
Cc1ccc(=O)n(-c2ccccc2)c1 [Compound 836]	> 100	
C/C(O)=C(\C#N)C(=O)Nc1ccc(C(F)(F)F)cc1 [Compound 837]	> 100	
CCN1C(=O)C=CC1=O [Compound 838]	> 100	
O=C(/C=C/c1ccccc1)N1CCCCC1 [Compound 840]	> 100	
O=C(/C=C/c1ccccc1)N1CCOCC1 [Compound 841]	> 100	
CCN(CC)C(=O)/C=C/c1ccccc1 [Compound 842]	> 100	
CN(C)C(=O)/C=C/c1ccccc1 [Compound 843]	> 100	
CC(C)(C)OC(=O)N1CCN(C(=O)/C=C/c2ccccc2)CC1 [Compound 844]	> 100	
O=C(/C=C/c1ccccc1)N1CCN(Cc2ccccc2)CC1 [Compound 845]	> 100	
COc1ccc(CNC(=O)/C=C/c2ccccc2)cc1 [Compound 846]	> 100	
CS(=O)(=O)/C=C/c1ccccc1 [Compound 847]	> 100	
O=c1c(O)c(-c2ccc(O)c(O)c2)oc2cc(O)cc(O)c12 [Compound 850]	> 100	
NC(=O)/C=C/c1ccccc1 [Compound 851]	> 100	
CCOCCNC(=O)/C=C/c1ccccc1 [Compound 853]	> 100	
O=C(/C=C/c1ccccc1)NC1CC1 [Compound 854]	> 100	

SMILES	IC50 [1] [µM]	other results
O=C(/C=C/c1ccccc1)N1CCCC1 [Compound 855]	> 100	
O=C(/C=C/c1ccccc1)Nc1c(F)cccc1F [Compound 859]	> 100	
CSc1ccc(NC(=O)/C=C/c2ccccc2)cc1 [Compound 860]	> 100	
O=C(/C=C/c1ccccc1)Nc1ccc([N+](=O)[O-])cc1 [Compound 861]	> 100	
O=C(/C=C/c1ccccc1)Nc1cccnc1 [Compound 862]	> 100	
CN(C(=O)/C=C/c1ccccc1)c1ccccc1 [Compound 863]	> 100	
O=S(=O)(/C=C/c1ccccc1)N1CCOCC1 [Compound 864]	> 100	
NS(=O)(=O)/C=C/c1ccccc1 [Compound 865]	> 100	
CC(C)(C)OC(=O)N1CCN(S(=O)(=O)/C=C/c2ccccc2)CC1 [Compound 866]	> 100	
CCOCCNS(=O)(=O)/C=C/c1ccccc1 [Compound 867]	> 100	
CCN(CC)S(=O)(=O)/C=C/c1ccccc1 [Compound 868]	> 100	
O=S(=O)(/C=C/c1ccccc1)N1CCN(Cc2ccccc2)CC1 [Compound 869]	> 100	
CC1CC(C)CN(S(=O)(=O)/C=C/c2ccccc2)C1 (stereo not drawn) [Compound 870]	> 100	
CC(C)N(C(C)C)S(=O)(=O)/C=C/c1ccccc1 [Compound 871]	> 100	
O=S(=O)(/C=C/c1ccccc1)N1CCCCC1 [Compound 872]	> 100	
CCN(Cc1ccccc1)S(=O)(=O)/C=C/c1ccccc1 [Compound 873]	> 100	
CCC1(O)C(=O)OCc2c1cc1n(c2=O)Cc2cc3ccccc3nc2-1 (stereo not drawn) [Compound 874]	> 100	
CN(C)C/C=C/C(=O)O [Compound 876]	> 100	
O=S(=O)(/C=C/c1ccccc1)Oc1ccc(I)cc1 [Compound 877]	> 100	
CC(C)c1ccc(OS(=O)(=O)/C=C/c2ccccc2)cc1 [Compound 878]	> 100	
O=S(=O)(/C=C/c1ccccc1)Oc1cccc(F)c1 [Compound 879]	> 100	
O=S(=O)(/C=C/c1ccccc1)Oc1ccc(Br)cc1 [Compound 880]	> 100	
O=S(F)(=Nc1ccc(Br)cc1)Oc1ccc(Br)cc1 (stereo not drawn) [Compound 881]	> 100	

SMILES	IC50 [1] [µM]	other results
O=S(F)(=Nc1ccc(Br)cc1)N1CCC(Cc2ccccc2)CC1 (stereo not drawn) [Compound 882]	> 100	
CN(c1ccccc1)S(=O)(=O)F [Compound 883]	> 100	
Cc1cccc(C2CCCN2S(=O)(=O)F)c1 (stereo not drawn) [Compound 884]	> 100	
O=C1C=CCCC1 [Compound 885]	> 100	
O=C(/C=C/c1ccc2c(c1)OCO2)c1ccccc1 [Compound 886]	> 100	
CN(C)c1ccc(/C=C/C(=O)c2ccccc2)cc1 [Compound 887]	> 100	
O=C1C=CCC1 [Compound 888]	> 100	
CC(=O)/C=C/c1cc2c(cc1Br)OCO2 [Compound 889]	> 100	
CC(=O)/C=C/c1ccccc1 [Compound 890]	> 100	
COc1ccc(/C=C/S(=O)(=O)c2ccc(Cl)cc2)cc1 [Compound 892]	> 100	
O=S(=O)(/C=C/c1ccccc1)c1ccc(Cl)cc1 [Compound 893]	> 100	
C=C(C)C(=O)N(CC)CC [Compound 894]	> 100	
O=C(/C=C/c1cccc(Cl)c1)c1cccc(Cl)c1 [Compound 895]	> 100	
O=C(/C=C/c1cccc(Br)c1)c1cccc(Br)c1 [Compound 896]	> 100	
COc1ccc(COCCCCC2=C3CCC(C)CC3CC2=O)cc1 (stereo not drawn) [Compound 897]	> 100	
O=Cc1cc2c(cc1C#Cc1ccccc1)OCO2 [Compound 898]	> 100	
O=C(/C=C/c1ccccc1)c1ccc(Br)cc1 [Compound 900]	> 100	
O=C(/C=C\n1cnc(-c2cc(C(F)(F)F)cc(C(F)(F)F)c2)n1)NNc1ccccn1 [Compound 901]	1 to 10	
COc1cc(-c2ncn(/C=C\C(=O)OC(C)C)n2)cc(C(F)(F)F)c1 [Compound 902]	1 to 10	
O=C(/C=C\n1cnc(-c2cc(C(F)(F)F)cc(C(F)(F)F)c2)n1)N1CC(F)(F)C1 [Compound 903]	1 to 10	
NC(=O)/C(=C/n1cnc(-c2cc(C(F)(F)F)cc(C(F)(F)F)c2)n1)c1cncnc1 [Compound 904]	1 to 10	
COc1cc(/C=C/C(=O)N2CCC=CC2=O)cc(OC)c1OC [Compound 905, Piperlongumine]	1 to 10	
